In patent publication US20100087623A1, “Method of extracting proteins and peptides from nano pearl powder” (priority 2008, published 2010):
Several values for one entry are separate records, joined by “and”; a condition that tells them apart may be missing. Equal entries are not always repeated.

System: tyrosinase (tyramine acid enzyme)
Test: Inhibition of tyrosinase (tyramine acid enzyme) activity, dopachrome growth
Assay type: biochemical
Settings: 2 mg/mL or 1 mg/mL, 37° C., pH 6.8
Procedure: Pearl powder solution is subjected to filter by employing a device called Centriprep YM3. […] In this experiment, effects of tyrosinase activation (i.e., dopachrome growth) caused by each of soluble organic compound extract of nono pearl powder and soluble organic compound extract of micro pearl powder are evaluated. Also, for pearl powder of the same effects of tyrosinase activation caused by organic compounds having a molecular weight more than 5 kDa and by organic compounds having a molecular weight less than 5 kDa are evaluated.
Referring to FIG. 11 and Table 7 again, experiment conditions are concentration of 1 mg/mL, temperature of 37° C., and pH value of 6.8.

OC[C@H]1O[C@@H](Oc2ccc(O)cc2)[C@H](O)[C@@H](O)[C@@H]1O [arbutin]
Inhibition (%) of tyramine acid enzyme (dopachrome growth) (0 minute): 0 ± 0% | Inhibition (%) of tyramine acid enzyme (dopachrome growth) (5 minute): 36.5 ± 1.9% | Inhibition (%) of tyramine acid enzyme (dopachrome growth) (10 minute): 48.6 ± 0.7% | Inhibition (%) of tyramine acid enzyme (dopachrome growth) (15 minute): 54.3 ± 1.0% | Inhibition (%) of tyramine acid enzyme (dopachrome growth) (30 minute): 53% and 54.7 ± 0.9% | Inhibition (%) of tyramine acid enzyme (dopachrome growth) (45 minute): 37.1 ± 1.3% | Inhibition (%) of tyramine acid enzyme (dopachrome growth) (60 minute): 21% and 21.6 ± 1.9%
